These results are taken from patent publication US20240279205A1, “NOVEL BENZIMIDAZOLE DERIVATIVE” (Carna Biosciences, Inc., priority 2020, published 2024).

Molecules are shown by their SMILES. Structures can show the parent of a compound that is named as a salt.

T1 sequence (Q86WV6 whole entry H232R): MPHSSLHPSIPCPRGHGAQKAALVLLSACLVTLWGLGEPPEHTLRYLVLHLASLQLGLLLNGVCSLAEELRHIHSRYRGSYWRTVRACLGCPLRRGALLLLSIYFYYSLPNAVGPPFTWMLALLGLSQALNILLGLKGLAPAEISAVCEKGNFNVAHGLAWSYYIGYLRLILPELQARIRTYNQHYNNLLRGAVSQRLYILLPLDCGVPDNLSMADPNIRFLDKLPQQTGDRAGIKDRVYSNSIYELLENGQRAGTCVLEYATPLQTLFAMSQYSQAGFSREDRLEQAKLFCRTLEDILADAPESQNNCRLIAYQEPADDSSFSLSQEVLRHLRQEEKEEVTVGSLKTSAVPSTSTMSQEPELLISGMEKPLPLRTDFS

The first experiment addresses T1, human STING (hSTING) (Homo sapiens, UniProt Q86WV6).
T1 construct: host or cells: HEK-Blue ISG cells (HEK293-derived SEAP reporter line)
Briefly: Inhibition test of intracellular human STING (hSTING) pathway using SEAP reporter cells (HEK-Blue ISG), stimulation with Compound 3. Type of experiment: cell-based. Set-up: hSTING inhibitory activity: scale not given here. Particulars: Compound 3 10 nM stimulation, 21 hours. Here is the method:
Inhibition test of intracellular human STING (hSTING) pathway using reporter cells
Since STING activates the transcription factor IRF3 upon ligand stimulation, the activity of STING can be evaluated by a reporter assay using a secretory alkaline phosphatase (SEAP reporter) integrated downstream of an IRF-inducible promoter.
That is, the hSTING inhibitory activity of the test compound was evaluated using HEK-Blue™MISG cells (manufactured by Invivogen, #hkb-isg-1) incorporating a SEAP reporter. Activation of hSTING was performed by stimulation with the small molecule ligand Compound 3 as described in the literature (Ramanjulu, J. M., et al., Nature. 2018, 564 (7736), 439-443). HEK-Blue™MISG cells were seeded in a 96-well plate and cultured overnight at 37° C. in a 5% CO2 incubator. To each well of this cell culture plate, a test compound solution adjusted to a final concentration of 0.1 to 10 µM of the test compound was added, cultured for 1 hour in a CO2 incubator, and then Compound 3 (final concentration 10 nM) was added and further cultured in a CO2 incubator for 21 hours. After collecting the culture supernatant of each well, the reporter activity was measured by color development reaction with alkaline phosphatase.
The reporter activity of the test compound non-addition and Compound 3 addition group was set to 100%, and the reporter activity of the test compound non-addition and Compound 3 non-addition group was set to 0%. The IC50 value was determined by regression analysis of the inhibitory rate determined from the reporter activity at each compound concentration and the test compound concentration (logarithm).
For the molecule `CC=C(Cl)c1ccc2[nH]c(Nc3c[nH]c4ccc(Cl)nc34)nc2c1` [Embodiment 137, N-(5-Chloro-1H-pyrrolo[3,2-b]pyridin-3-yl)-5-(1-chloroprop-1-en-1-yl)-1H-benzo[d]imidazole-2-amine], the hSTING inhibitory activity entry was “* * *”.
In the case of `Brc1ccc2[nH]cc(Nc3nc4cc(Oc5cccnc5)ccc4[nH]3)c2c1` [Example 13, N-(5-bromo-1H-indol-3-yl)-5-(pyridin-3-yloxy)-1H-benzo[d]imidazol-2-amine], the hSTING inhibitory activity entry was “* *”.
With `c1ccc(Oc2ccc3[nH]c(Nc4c[nH]c5cc(-c6ccccc6)cnc45)nc3c2)cc1` [Embodiment 51, 5-phenoxy-N-(6-phenyl-1H-pyrrolo[3,2-b]pyridin-3-yl)-1H-benzo[d]imidazol-2-amine], the hSTING inhibitory activity entry is “* *”.
For the molecule `Fc1cc2[nH]c(Nc3c[nH]c4ccc(Cl)nc34)nc2cc1Oc1ccccc1` [Embodiment 193, N-(5-Chloro-1H-pyrrolo[3,2-b]pyridin-3-yl)-6-fluoro-5-phenoxy-1H-benzo[d]imidazol-2-amine], the hSTING inhibitory activity result was “* *”.
Same read-out and setting: to `Cn1c(Nc2c[nH]c3ccc(Cl)cc23)nc2cc(C3CCOCC3)ccc21` [Embodiment 197, N-(5-Chloro-1H-indol-3-yl)-1-methyl-5-(tetrahydro-2H-pyran-4-yl)-1H-benzo[d]imidazole-2-amine formate] belongs “* *”.
Consider `CN(C)c1cccc(Oc2ccc3[nH]c(Nc4c[nH]c5ccc(Br)nc45)nc3c2)c1` [Embodiment 65, N-(5-bromo-1H-pyrrolo[3,2-b]pyridin-3-yl)-5-[3-(dimethylamino)phenoxy]-1H-benzo[d]imidazol-2-amine], for which the hSTING inhibitory activity entry is reported as “* *”.
Take `C[C@H](O)Cn1c(Nc2c[nH]c3ccc(Cl)cc23)nc2cc(C(F)(F)F)ccc21` [Embodiment 243, (S)-1-{2-[(5-chloro-1H-indol-3-yl)amino]-5-(trifluoromethyl)-1H-benzo[d]imidazol-1-yl}propan-2-oar]: the hSTING inhibitory activity result is on record as “* *”.
`C1=C(c2ccnc3c(Nc4nc5cc(Oc6ccccc6)ccc5[nH]4)c[nH]c23)CCCC1` [Embodiment 162, N-[7-(Cyclohex-1-en-1-yl)-1H-pyrrolo[3,2-b]pyridin-3-yl]-5-phenoxy-1H-benzo[d]imidazole-2-amine]: the hSTING inhibitory activity result is “* *”.
Same read-out and setting: in the case of `Brc1ccc2[nH]cc(Nc3nc4c(-c5ccccc5)cccc4[nH]3)c2n1` [Embodiment 62, N-(5-bromo-1H-pyrrolo[3,2-b]pyridin-3-yl)-4-phenyl-1H-benzo [d]imidazol-2-amine] it was “* *”.
The same measure, in the same setting: to `CNn1c(Nc2c[nH]c3ccc(F)c(F)c23)nc2cc(C(F)(F)F)cc(F)c21` [Embodiment 272, N2-(4,5-difluoro-1H-indol-3-yl)-7-fluoro-N1-methyl-5-(trifluoromethyl)-1H-benzo[d]imidazole-1,2-diamine] belongs “* * *”; to `Clc1ccc2[nH]cc(Nc3nc4cc(-c5ccncc5)ccc4[nH]3)c2n1` [Embodiment 96, N-(5-Chloro-1H-pyrrolo[3,2-b]pyridin-3-yl)-5-(pyridin-4-yl)-1H-benzo[d]imidazol-2-amine], “* *”.

The same experiment, now with this note: Compound 3 10 nM stimulation, 21 hours, read-out: hSTING inhibitory activity.
In the case of `CS(=O)(=O)CCn1c(Nc2c[nH]c3ccc(Cl)cc23)nc2cc(C(F)(F)F)ccc21` [Embodiment 230, N-(5-Chloro-1H-indol-3-yl)-1-[2-(methylsulfonyl)ethyl]-5-(trifluoromethyl)-1H-benzo[d] imidazol-2-amine], the IC50 lay within 1 to 10 µM.
The same measure, in the same setting: in the case of `C#CCNC(=O)c1ccc2[nH]cc(Nc3nc4cc(Oc5ccccc5)ccc4[nH]3)c2c1` [Example 29, 3-[(5-phenoxy-1H-benzo[d]imidazol-2-yl)amino]-N-(prop-2-yn-1-yl)-1H-indole-5-carboxamide] it was at least 10 µM; in that of `COCCOc1cc2nc(Nc3c[nH]c4ccc(Cl)nc34)[nH]c2cc1OCCOC` [Embodiment 143, N-(5-Chloro-1H-pyrrolo[3,2-b]pyridin-3-yl)-5,6-bis(2-methoxyethoxy)-1H-benzo[d]imidazol-2-amine], at least 10 µM; in that of `C1=C(c2ccc3[nH]cc(Nc4nc5cc(Oc6ccccc6)ccc5[nH]4)c3n2)CCCC1` [Embodiment 48, N-[5-(Cyclohex-1-en-1-yl)-1H-pyrrolo[3,2-b]pyridin-3-yl]-5-phenoxy-1H-benzo[d]imidazol-2-a mine], 1 to 10 µM.
As to `Cn1c(Nc2c[nH]c3ccc(Cl)nc23)nc2ccc(C3CCOCC3)cc21` [Embodiment 154, N-(5-chloro-1H-pyrrolo[3,2-b]pyridin-3-yl)-1-methyl-6-(tetrahydro-2H-pyran-4-yl)-1H-benzo[d] imidazol-2-amine], the IC50 was at least 10 µM.
As for `C[Si](C)(C)C#Cc1ccc2[nH]cc(Nc3nc4cc(Oc5ccccc5)ccc4[nH]3)c2n1` [Embodiment 106, 5-phenoxy-N-{5-[(trimethylsilyl)ethynyl]-1H-pyrrolo[3,2-b]pyridin-3-yl}-1H-benzo[d]imidazol-2-amine], the IC50 lay in the range of 1 to 10 µM.
Still for that read-out and setting: to `Clc1ccc2[nH]cc(Nc3nc4cc(OC5COC5)ccc4[nH]3)c2n1` [Embodiment 139, N-(5-Chloro-1H-pyrrolo[3,2-b]pyridin-3-yl)-5-(oxetan-3-yloxy)-1H-benzo[d]imidazol-2-amine] belongs at least 10 µM.
Consider `CCCCn1c(Nc2c[nH]c3ccc(Br)nc23)nc2cc(Oc3ccccc3)ccc21` [Embodiment 90, N-(5-bromo-1H-pyrrolo[3,2-b]pyridin-3-yl)-1-butyl-5-phenoxy-1H-benzo[d]imidazol-2-amine], for which the IC50 lay in the range of 1 to 10 µM.
With `Cn1c(Nc2c[nH]c3ccc(Cl)nc23)nc2cc(F)cc(F)c21` [Embodiment 204, N-(5-Chloro-1H-pyrrolo[3,2-b]pyridin-3-yl)-5,7-difluoro-1-methyl-1H-benzo[d]imidazol-2-amine], the IC50 is at least 10 µM.
For `Cn1c(Nc2c[nH]c3ccc(Cl)nc23)nc2cc(Cl)ccc21` [Embodiment 172, 5-Chloro-N-(5-chloro-1H-pyrrolo [3,2-b]pyridin-3-yl)-1-methyl-1H-benzo[d]imidazol-2-amine], the IC50 lay in the range of 1 to 10 µM.
Still for that read-out and setting: to `COCCn1c(Nc2c[nH]c3ccc(Cl)nc23)nc2ccc(-c3ccccc3)cc21` [Embodiment 182] belongs at least 10 µM; to `CN(C)C(=O)c1cccc2[nH]c(Nc3c[nH]c4ccc(Cl)nc34)nc12` [Embodiment 166, 2-[(5-Chloro-1H-pyrrolo[3,2-b]pyridin-3-yl)amino]-N,N-dimethyl-1H-benzo[d]imidazole-4-carboxamide], at least 10 µM.
The same measure, in the same setting: to `Clc1ccc2[nH]cc(Nc3nc4c5c(ccc4[nH]3)OCCO5)c2n1` [Embodiment 135, N-(5-chloro-1H-pyrrolo[3,2-b]pyridin-3-yl)-7,8-dihydro-3H-[1,4] dioxino[2′,3′:3, 4]benzo[1,2-d]imidazol-2-amine] belongs at least 10 µM.
The same measure, in the same setting: in the case of `COc1cccc2[nH]c(Nc3c[nH]c4ccc(Br)nc34)nc12` [Embodiment 61, N-(5-bromo-1H-pyrrolo[3,2-b]pyridin-3-yl)-4-methoxy-1H-benzo[d]imidazol-2-amine] it was 1 to 10 µM; in that of `CC(C)Oc1ccc2nc(Nc3c[nH]c4ccc(Cl)nc34)n(C)c2c1` [Embodiment 209, N-(5-Chloro-1H-pyrrolo[3,2-b]pyridin-3-yl)-6-isopropoxy-1-methyl-1H-benzo[d]imidazol-2-amine], 1 to 10 µM.
On to `Cn1c(Nc2c[nH]c3ccc(Cl)nc23)nc2ccc(OC(F)(F)F)cc21` [Embodiment 211, N-(5-Chloro-1H-pyrrolo[3,2-b]pyridin-3-yl)-1-methyl-6-(trifluoromethoxy)-1H-benzo[d] imidazol-2-amine], for which the IC50 is at least 10 µM.
Regarding `Cn1c(Nc2c[nH]c3ccc(Cl)nc23)nc2cc(F)ccc21` [Embodiment 168, N-(5-Chloro-1H-pyrrolo[3,2-b]pyridin-3-yl)-5-fluoro-1-methyl-1H-benzo[d]imidazol-2-amine formate], the IC50 was at least 10 µM.
Same read-out and setting: to `Cc1ccc2nc(Nc3c[nH]c4ccc(Cl)nc34)n(C)c2c1` [Embodiment 152, N-(5-Chloro-1H-pyrrolo[3,2-b]pyridin-3-yl)-1,6-dimethyl-1H-benzo [d]imidazol-2-amine] belongs at least 10 µM.
On the same count and under the same terms, in the case of `CC(C)(O)Cn1c(Nc2c[nH]c3ccc(Cl)cc23)nc2cc(C(F)(F)F)ccc21` [Embodiment 234, 1-{2-[(5-chloro-1H-indol-3-yl)amino]-5-(trifluoromethyl)-1H-benzo [d]imidazol-1-yl}-2-methylpropane-2-oar] it was 1 to 10 µM.
The same measure, in the same setting: in the case of `O=C(O)c1ccc2[nH]c(Nc3c[nH]c4ccc(Br)nc34)nc2c1` [Embodiment 37, 2-[(5-bromo-1H-pyrrolo[3,2-b]pyridin-3-yl)amino]-1H-benzo[d]imidazole-5-carboxylic acid] it was at least 10 µM; in that of `CS(=O)(=O)c1ccc(Oc2ccc3[nH]c(Nc4c[nH]c5ccc(Br)nc45)nc3c2)cc1` [Embodiment 66, N-(5-bromo-1H-pyrrolo[3,2-b]pyridin-3-yl)-5-[4-(methylsulfonyl)phenoxy]-1H-benzo[d]imidazol-2-amine], 1 to 10 µM.
